From PubChem BioAssay (NCI)
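Abbreviation: GI50, concentration required for 50% inhibition of growth. TGI marks complete inhibition of growth.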

How the values were obtained:
Test in all cases: inhibition of tumour cell growth, NCI panel, 384-well format
786-0 renal = system: 786-0 renal
A498 renal = system: A498 renal
A549 NSCLC = system: A549 NSCLC
ACHN renal = system: ACHN renal
BT-549 breast = system: BT-549 breast
CAKI-1 renal = system: CAKI-1 renal
CCRF-CEM leukemia = system: CCRF-CEM leukemia
COLO 205 colon = system: COLO 205 colon
DU-145 prostate = system: DU-145 prostate
HCC-2998 colon = system: HCC-2998 colon
HCT-15 colon = system: HCT-15 colon
HL-60(TB) leukemia = system: HL-60(TB) leukemia
HOP-62 NSCLC = system: HOP-62 NSCLC
HT29 colon = system: HT29 colon
IGROV1 ovarian = system: IGROV1 ovarian
K-562 leukemia = system: K-562 leukemia
KM12 colon = system: KM12 colon
LOX IMVI melanoma = system: LOX IMVI melanoma
M14 melanoma = system: M14 melanoma
MALME-3M melanoma = system: MALME-3M melanoma
MCF7 breast = system: MCF7 breast
MDA-MB-231 breast = system: MDA-MB-231 breast
MDA-MB-435 melanoma = system: MDA-MB-435 melanoma
MDA-MB-468 breast = system: MDA-MB-468 breast
MOLT-4 leukemia = system: MOLT-4 leukemia
NCI-H226 lung = system: NCI-H226 lung
NCI-H23 lung = system: NCI-H23 lung
NCI-H322M lung = system: NCI-H322M lung
NCI-H460 NSCLC = system: NCI-H460 NSCLC
NCI-H522 lung = system: NCI-H522 lung
NCI/ADR-RES ovarian = system: NCI/ADR-RES ovarian
OVCAR-3 ovarian = system: OVCAR-3 ovarian
OVCAR-4 ovarian = system: OVCAR-4 ovarian
OVCAR-5 ovarian = system: OVCAR-5 ovarian
OVCAR-8 ovarian = system: OVCAR-8 ovarian
PC-3 prostate = system: PC-3 prostate
RPMI-8226 leukemia = system: RPMI-8226 leukemia
RXF 393 renal = system: RXF 393 renal
SF-268 CNS = system: SF-268 CNS
SF-295 CNS = system: SF-295 CNS
SF-539 CNS = system: SF-539 CNS
SK-MEL-2 melanoma = system: SK-MEL-2 melanoma
SK-MEL-28 melanoma = system: SK-MEL-28 melanoma
SK-MEL-5 melanoma = system: SK-MEL-5 melanoma
SK-OV-3 ovarian = system: SK-OV-3 ovarian
SN12C renal = system: SN12C renal
SNB-19 CNS = system: SNB-19 CNS
SR leukemia = system: SR leukemia
SW-620 colon = system: SW-620 colon
T-47D breast = system: T-47D breast
TK-10 renal = system: TK-10 renal
U251 glioblastoma = system: U251 glioblastoma
UACC-257 melanoma = system: UACC-257 melanoma
UACC-62 melanoma = system: UACC-62 melanoma
UO-31 renal = system: UO-31 renal

SMILES: CN(C)C/C=C/C(=O)Nc1ccc(C(=O)Nc2cccc(Nc3ncc(Cl)c(-c4c[nH]c5ccccc45)n3)c2)cc1
- GI50 ([…]-0 renal): 23.9 nM
- TGI (786-0 renal): 83.3 nM
- GI50 (A498 renal): 17.2 nM
- TGI (A498 renal): 55.9 nM
- GI50 (A549 NSCLC): 31.1 nM
- TGI (A549 NSCLC): 110 nM
- GI50 (ACHN renal): 20.5 nM
- TGI (ACHN renal): 83 nM
- GI50 (BT-549 breast): < 10 nM
- TGI (BT-549 breast): 13.7 nM
- GI50 (CAKI-1 renal): 14.2 nM
- TGI (CAKI-1 renal): 46.9 nM
- GI50 (CCRF-CEM leukemia): < 10 nM
- TGI (CCRF-CEM leukemia): < 10 nM
- GI50 (COLO 205 colon): < 10 nM
- TGI (COLO 205 colon): 13.4 nM
- GI50 (DU-145 prostate): 16.2 nM
- TGI (DU-145 prostate): 60.2 nM
- GI50 (HCC-2998 colon): < 10 nM
- TGI (HCC-2998 colon): 20.6 nM
- GI50 (HCT-15 colon): 45.1 nM
- TGI (HCT-15 colon): 213 nM
- GI50 (HL-60(TB) leukemia): < 10 nM
- TGI (HL-60(TB) leukemia): < 10 nM
- GI50 (HOP-62 NSCLC): 15.8 nM
- TGI (HOP-62 NSCLC): 47.9 nM
- GI50 (HT29 colon): 20 nM
- TGI (HT29 colon): 47.5 nM
- GI50 (IGROV1 ovarian): 12.5 nM
- TGI (IGROV1 ovarian): 51.9 nM
- GI50 (K-562 leukemia): < 10 nM
- TGI (K-562 leukemia): 103 nM
- GI50 (KM12 colon): 17.7 nM
- TGI (KM12 colon): 41.1 nM
- GI50 (LOX IMVI melanoma): < 10 nM
- TGI (LOX IMVI melanoma): 28.2 nM
- GI50 (M14 melanoma): 14.5 nM
- TGI (M14 melanoma): 29.5 nM
- GI50 (MALME-3M melanoma): 14.7 nM
- TGI (MALME-3M melanoma): 29.9 nM
- GI50 (MCF7 breast): < 10 nM
- TGI (MCF7 breast): 166 nM
- GI50 (MDA-MB-231 breast): < 10 nM
- TGI (MDA-MB-231 breast): 44.8 nM
- GI50 (MDA-MB-435 melanoma): 13.3 nM
- TGI (MDA-MB-435 melanoma): 35.4 nM
- GI50 (MDA-MB-468 breast): < 10 nM
- TGI (MDA-MB-468 breast): 14.4 nM
- GI50 (MOLT-4 leukemia): < 10 nM
- TGI (MOLT-4 leukemia): 12.4 nM
- GI50 (NCI-H226 lung): 12.4 nM
- TGI (NCI-H226 lung): 33.6 nM
- GI50 (NCI-H23 lung): 10.6 nM
- TGI (NCI-H23 lung): 25.4 nM
- GI50 (NCI-H322M lung): 20.9 nM
- TGI (NCI-H322M lung): 49.5 nM
- GI50 (NCI-H460 NSCLC): 17.3 nM
- TGI (NCI-H460 NSCLC): 37.2 nM
- GI50 (NCI-H522 lung): < 10 nM
- TGI (NCI-H522 lung): < 10 nM
- GI50 (NCI/ADR-RES ovarian): 525 nM
- TGI (NCI/ADR-RES ovarian): 12200 nM
- GI50 (OVCAR-3 ovarian): < 10 nM
- TGI (OVCAR-3 ovarian): 11 nM
- GI50 (OVCAR-4 ovarian): < 10 nM
- TGI (OVCAR-4 ovarian): 25.4 nM
- GI50 (OVCAR-5 ovarian): 21.4 nM
- TGI (OVCAR-5 ovarian): 1200 nM
- GI50 (OVCAR-8 ovarian): 16.5 nM
- TGI (OVCAR-8 ovarian): 39.8 nM
- GI50 (PC-3 prostate): 20.6 nM
- TGI (PC-3 prostate): 54.5 nM
- GI50 (RPMI-8226 leukemia): 13.7 nM
- TGI (RPMI-8226 leukemia): 26.8 nM
- GI50 (RXF 393 renal): < 10 nM
- TGI (RXF 393 renal): < 10 nM
- GI50 (SF-268 CNS): < 10 nM
- TGI (SF-268 CNS): 17.4 nM
- GI50 (SF-295 CNS): 31.4 nM
- TGI (SF-295 CNS): 99.4 nM
- GI50 (SF-539 CNS): < 10 nM
- TGI (SF-539 CNS): 19.5 nM
- GI50 (SK-MEL-2 melanoma): < 10 nM
- TGI (SK-MEL-2 melanoma): 13.3 nM
- GI50 (SK-MEL-28 melanoma): < 10 nM
- TGI (SK-MEL-28 melanoma): 15.2 nM
- GI50 (SK-MEL-5 melanoma): < 10 nM
- TGI (SK-MEL-5 melanoma): 20.7 nM
- GI50 (SK-OV-3 ovarian): 11.4 nM
- TGI (SK-OV-3 ovarian): 45.9 nM
- GI50 (SN12C renal): 10.3 nM
- TGI (SN12C renal): 29.4 nM
- GI50 (SNB-19 CNS): 20.1 nM
- TGI (SNB-19 CNS): 174 nM
- GI50 (SR leukemia): < 10 nM
- TGI (SR leukemia): < 10 nM
- GI50 (SW-620 colon): < 10 nM
- TGI (SW-620 colon): 42 nM
- GI50 (T-47D breast): 14.2 nM
- TGI (T-47D breast): 73.3 nM
- GI50 (TK-10 renal): 21.8 nM
- TGI (TK-10 renal): 55.9 nM
- GI50 (U251 glioblastoma): < 10 nM
- TGI (U251 glioblastoma): 27.4 nM
- GI50 (UACC-257 melanoma): < 10 nM
- TGI (UACC-257 melanoma): 21.3 nM
- GI50 (UACC-62 melanoma): < 10 nM
- TGI (UACC-62 melanoma): 18.7 nM
- GI50 (UO-31 renal): 105 nM
- TGI (UO-31 renal): 372 nM
